These are literature values, as cited in patent US20030087306A1, “Methods for identifying novel multimeric agents that modulate receptors” (priority 1998, published 2003).

Where a name gives a salt, the structure may show the parent alone. Read-outs that look alike come from different tables or passages of the source.

Data set [1] concerns 5-HT1D receptor. The settings on record: for potency (pD2 range): rabbit saphenous vein rings.
For a further data set, the system named is human coronary artery. The settings on record: for effectiveness in causing contraction of human isolated coronary artery: endothelium-denuded segments, in vitro.
The target of another data set is T1, AT1 receptor (Homo sapiens, UniProt P30556).
T1 sequence (P30556 1-359): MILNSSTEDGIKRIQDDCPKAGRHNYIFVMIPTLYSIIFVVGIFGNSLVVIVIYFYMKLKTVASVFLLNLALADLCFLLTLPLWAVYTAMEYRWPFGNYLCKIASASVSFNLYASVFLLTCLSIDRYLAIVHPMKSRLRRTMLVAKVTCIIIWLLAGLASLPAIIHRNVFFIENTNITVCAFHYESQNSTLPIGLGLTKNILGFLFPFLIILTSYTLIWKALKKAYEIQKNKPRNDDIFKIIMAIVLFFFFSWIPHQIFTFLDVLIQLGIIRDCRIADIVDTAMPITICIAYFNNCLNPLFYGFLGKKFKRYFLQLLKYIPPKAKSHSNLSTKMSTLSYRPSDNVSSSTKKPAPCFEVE

The target in the next data set is T2, AT2 receptor (Homo sapiens, UniProt P50052).
T2 sequence (P50052 1-363): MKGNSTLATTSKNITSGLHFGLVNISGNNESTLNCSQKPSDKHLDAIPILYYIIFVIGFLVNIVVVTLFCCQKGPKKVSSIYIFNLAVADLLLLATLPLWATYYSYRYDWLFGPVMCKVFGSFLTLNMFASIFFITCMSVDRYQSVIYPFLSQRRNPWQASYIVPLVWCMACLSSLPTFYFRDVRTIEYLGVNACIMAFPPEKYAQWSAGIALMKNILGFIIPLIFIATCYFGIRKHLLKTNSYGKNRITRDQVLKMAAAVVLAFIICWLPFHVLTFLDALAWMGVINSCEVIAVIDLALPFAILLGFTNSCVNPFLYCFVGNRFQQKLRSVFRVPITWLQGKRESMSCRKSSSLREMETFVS

In data set [2] the test system is angiotensin II receptor sites. The settings on record: rat adrenal cortical membranes and cultured rat smooth muscle cells.
A further data set has as its target β2-adrenergic receptor (Homo sapiens, UniProt P07550). The settings on record: for duration of action / onset of action (in words): human, in vivo.
Another data set addresses 5-HT1E binding site (Homo sapiens, UniProt P28566).
Another data set concerns the target 5-HT1B binding site (Rattus norvegicus, UniProt P28564).
A further data set deals with T3, 5-HT1A binding site (Homo sapiens, UniProt P08908).
T3 sequence (P08908 1-422): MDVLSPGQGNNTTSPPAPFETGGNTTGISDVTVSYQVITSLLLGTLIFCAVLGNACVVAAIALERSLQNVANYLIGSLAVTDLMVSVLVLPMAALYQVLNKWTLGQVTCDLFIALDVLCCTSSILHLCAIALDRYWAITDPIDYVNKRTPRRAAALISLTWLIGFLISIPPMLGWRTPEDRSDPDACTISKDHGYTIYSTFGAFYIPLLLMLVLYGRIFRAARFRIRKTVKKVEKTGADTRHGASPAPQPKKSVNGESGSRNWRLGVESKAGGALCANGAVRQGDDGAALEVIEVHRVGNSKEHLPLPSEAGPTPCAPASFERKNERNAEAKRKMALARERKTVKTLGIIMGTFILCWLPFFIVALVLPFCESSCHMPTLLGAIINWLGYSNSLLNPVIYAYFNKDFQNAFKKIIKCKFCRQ

Data set [3] concerns the target T4, 5-HT1D receptor.
T4 construct: rows headed: efficacy compared to 5-HT; other: forskolin-stimulated adenylyl cyclase, guinea-pig substantia nigra
The settings on record: forskolin-stimulated adenylyl cyclase, guinea-pig substantia nigra.

The target of another data set is 5-HT2 binding site (Homo sapiens, UniProt P28223).
Data set [4] addresses 5-HT1D receptor. The settings on record: K+-evoked [3H]-5-HT release, guinea-pig frontal cortex slices.
The target in the next data set is T5, 5-HT1C binding site (Homo sapiens, UniProt P28335).
T5 sequence (P28335 33-458): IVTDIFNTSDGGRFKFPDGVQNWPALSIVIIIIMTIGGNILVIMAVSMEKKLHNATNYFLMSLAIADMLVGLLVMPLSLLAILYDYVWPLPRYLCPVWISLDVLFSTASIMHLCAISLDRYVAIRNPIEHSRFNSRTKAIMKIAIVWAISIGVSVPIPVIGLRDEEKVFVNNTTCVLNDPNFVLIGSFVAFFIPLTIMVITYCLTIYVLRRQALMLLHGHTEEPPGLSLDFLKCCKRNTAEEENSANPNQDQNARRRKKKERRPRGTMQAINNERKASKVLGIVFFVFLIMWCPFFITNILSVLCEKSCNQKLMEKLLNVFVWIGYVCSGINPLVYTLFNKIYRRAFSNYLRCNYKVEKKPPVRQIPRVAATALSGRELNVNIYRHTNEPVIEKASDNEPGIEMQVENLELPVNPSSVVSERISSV

In another data set the target is T6, 5-HT1 receptor (Cricetulus griseus, UniProt P46636).
T6 construct: These CHO cells are screened for endogenous G protein-coupled receptors; endogenous in cells; host or cells: CHO cells with a cAMP-responsive luciferase reporter
The settings on record: luciferase expression, CHO cells.

For a further data set, the target named is T7, 5-HT1F receptors (Homo sapiens, UniProt P30939).
T7 construct: expressed in transfected cells; host or cells: NIH-3T3 cells
T7 sequence (P30939 1-366): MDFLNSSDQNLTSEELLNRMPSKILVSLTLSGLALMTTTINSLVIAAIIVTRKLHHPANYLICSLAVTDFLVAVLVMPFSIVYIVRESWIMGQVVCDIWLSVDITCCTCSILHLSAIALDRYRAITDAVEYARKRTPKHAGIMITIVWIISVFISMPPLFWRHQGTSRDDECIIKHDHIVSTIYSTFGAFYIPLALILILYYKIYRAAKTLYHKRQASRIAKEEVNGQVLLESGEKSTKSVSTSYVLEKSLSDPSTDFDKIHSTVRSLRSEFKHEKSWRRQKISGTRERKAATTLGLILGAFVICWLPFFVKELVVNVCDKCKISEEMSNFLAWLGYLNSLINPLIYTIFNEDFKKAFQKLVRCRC

The subject of data set [5] is cholinergic receptors on bronchial smooth muscle.
The next data set concerns neuropeptide release. The settings on record: trigeminal ganglion stimulation in cats.

β2-adrenergic receptor, sequence (P07550 whole entry): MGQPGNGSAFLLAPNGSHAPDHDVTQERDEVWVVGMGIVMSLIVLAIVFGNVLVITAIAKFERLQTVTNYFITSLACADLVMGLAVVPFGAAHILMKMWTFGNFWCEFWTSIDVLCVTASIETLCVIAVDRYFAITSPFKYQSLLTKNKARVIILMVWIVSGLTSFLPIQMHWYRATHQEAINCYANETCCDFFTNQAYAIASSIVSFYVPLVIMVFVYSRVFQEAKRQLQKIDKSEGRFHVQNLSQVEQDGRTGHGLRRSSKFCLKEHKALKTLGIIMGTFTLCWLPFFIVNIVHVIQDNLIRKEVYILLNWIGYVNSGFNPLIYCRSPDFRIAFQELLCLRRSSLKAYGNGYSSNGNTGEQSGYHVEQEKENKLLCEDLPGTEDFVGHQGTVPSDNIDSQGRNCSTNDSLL
T6 sequence (P46636 whole entry): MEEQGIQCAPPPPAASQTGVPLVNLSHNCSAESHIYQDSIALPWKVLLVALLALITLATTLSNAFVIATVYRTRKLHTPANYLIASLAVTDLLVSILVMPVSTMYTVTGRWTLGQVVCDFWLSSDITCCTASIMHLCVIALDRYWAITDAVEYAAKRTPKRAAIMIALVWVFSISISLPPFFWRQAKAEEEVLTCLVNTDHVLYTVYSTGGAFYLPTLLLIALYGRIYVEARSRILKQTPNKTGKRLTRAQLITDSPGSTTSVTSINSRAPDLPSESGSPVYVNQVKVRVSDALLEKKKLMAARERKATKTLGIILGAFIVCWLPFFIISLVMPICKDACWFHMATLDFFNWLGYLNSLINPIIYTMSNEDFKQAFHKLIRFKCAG
5-HT1E binding site, sequence (P28566 whole entry): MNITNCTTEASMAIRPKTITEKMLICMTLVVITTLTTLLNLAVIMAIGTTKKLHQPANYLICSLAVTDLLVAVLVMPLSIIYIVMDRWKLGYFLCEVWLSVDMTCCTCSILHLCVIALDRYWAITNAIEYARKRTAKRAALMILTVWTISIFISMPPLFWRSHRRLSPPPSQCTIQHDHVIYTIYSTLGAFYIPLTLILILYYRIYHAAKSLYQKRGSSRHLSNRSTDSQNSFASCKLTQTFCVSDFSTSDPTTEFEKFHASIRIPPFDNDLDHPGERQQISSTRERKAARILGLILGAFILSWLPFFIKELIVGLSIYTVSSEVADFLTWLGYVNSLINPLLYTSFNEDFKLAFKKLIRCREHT
5-HT1B binding site, sequence (P28564 whole entry): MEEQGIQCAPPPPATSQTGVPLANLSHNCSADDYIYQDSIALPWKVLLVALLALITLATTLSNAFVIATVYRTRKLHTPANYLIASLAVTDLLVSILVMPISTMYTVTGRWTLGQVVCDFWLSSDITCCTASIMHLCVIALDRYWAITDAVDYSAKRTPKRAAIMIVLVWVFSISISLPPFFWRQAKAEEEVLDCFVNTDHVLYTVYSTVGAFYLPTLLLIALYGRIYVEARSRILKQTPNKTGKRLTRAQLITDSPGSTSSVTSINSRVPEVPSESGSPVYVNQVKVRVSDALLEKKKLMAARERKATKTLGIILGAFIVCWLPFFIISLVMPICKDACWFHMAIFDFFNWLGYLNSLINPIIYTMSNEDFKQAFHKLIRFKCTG
5-HT2 binding site, sequence (P28223 whole entry): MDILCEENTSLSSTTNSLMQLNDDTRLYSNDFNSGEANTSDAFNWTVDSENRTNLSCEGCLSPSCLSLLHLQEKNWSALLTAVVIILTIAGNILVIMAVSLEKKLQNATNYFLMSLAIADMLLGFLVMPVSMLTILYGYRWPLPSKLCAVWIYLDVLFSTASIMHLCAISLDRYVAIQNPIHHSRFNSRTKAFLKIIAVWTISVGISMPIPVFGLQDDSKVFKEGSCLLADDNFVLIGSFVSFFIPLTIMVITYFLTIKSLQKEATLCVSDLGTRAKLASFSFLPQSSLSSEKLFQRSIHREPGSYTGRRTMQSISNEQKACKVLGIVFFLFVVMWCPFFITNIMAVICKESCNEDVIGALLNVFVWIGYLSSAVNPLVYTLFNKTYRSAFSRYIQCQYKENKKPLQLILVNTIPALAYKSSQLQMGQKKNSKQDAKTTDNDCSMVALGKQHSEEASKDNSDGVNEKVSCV

With `CNS(=O)(=O)Cc1ccc2[nH]cc(CCN(C)C)c2c1` [sumatriptan], in the data set on 5-HT1D receptor [1] (compared to 5-HT and 5-CT), the “efficacy, maximal contractile response (Emax)” value was “significantly greater”. The “effectiveness in causing contraction of human isolated coronary artery” value in the data set with human coronary artery is listed as “significantly less efficacious than 5-HT”. Further, the “affinity (pIC50)” value at 5-HT1D binding site is 8.22.
As to `Cc1cc(Cn2cnc3c2CC(C(=O)O)N(C(=O)C(c2ccccc2)c2ccccc2)C3)ccc1N` (centres unmarked) [PD 123177], on AT1 receptor (AT1 receptor), the affinity result was “low affinity”.
Turning to `CCCCc1nc(Cl)c(CO)n1Cc1ccc(-c2ccccc2-c2nn[nH]n2)cc1` [losartan], at AT2 receptor, the affinity result was “low affinity”. Moreover, the “inhibition of specific binding of 125I-angiotensin II” value in [2] is “inhibits the specific binding”.
For the molecule `CN(C)CCc1c[nH]c2ccc(Cn3cncn3)cc12` [rizatriptan], the maximum contractile response result in the data set on human coronary artery (compared with sumatriptan) is listed as “lower maximum contractile response”. Besides, the “effectiveness in causing contraction of human isolated coronary artery” value is on record as “less effective than sumatriptan” with human coronary artery, “significantly less efficacious than 5-HT” in the data set with human coronary artery (listed as MK462) and “significantly less effective than sumatriptan” with human coronary artery (listed as MK-462).
As for `c1ccc2c(c1)CC[C@H](CNCCCNC1=NCCCN1)O2` [alniditan, (−)—(R)-N-[3,4-dihydro-2H-1-benzopyran-2-ylmethyl-N′-(1,4,5,6-tetrahydro-2-pyrimidinyl)-1,3-propanediaminedihydrochloride], in the data set with 5-HT1-like receptor (anesthetized dogs), the “potency compared with sumatriptan” value is reported as “higher”. In the data set with 5-HT1-like receptor (anesthetized dogs, 0.63-80 μg/kg i.v.), the “common carotid arterial blood flow” value is listed as “reduces common carotid arterial blood flow”. Besides, the “effect on other cardiovascular variables” value in the data set with 5-HT1-like receptor (coronary, mesenteric and renal arterial blood flow, vascular and airway resistance) is recorded as “comparatively little effect”.
For the molecule `CC(Cc1ccc(O)cc1)NCC(O)c1cc(O)cc(O)c1` (centres unmarked) [Fenoterol], at β2-adrenergic receptor, the duration of action is 2 to 3 h and the “onset of action (in words)” value was “rapid onset”.
Turning to angiotensin II, the “selectivity for the AT subtypes” value at AT1 receptor (AT1 vs AT2) is given as “no selectivity”.
As for `CCC(NC(C)C)C(O)c1ccc(O)c2[nH]c(=O)ccc12` (centres unmarked) [Procaterol], on β2-adrenergic receptor, the duration of action result is given as “about 5 hours” and the “onset of action (in words)” value is on record as “rapid onset of action”.
For the molecule `Cc1ccc(C(=O)Oc2ccc(C(O)CNC(C)(C)C)cc2OC(=O)c2ccc(C)cc2)cc1` (centres unmarked) [bitolterol], the “duration of effect after inhalation” value at β2-adrenergic receptor is 3 to 6 h.
In the case of `CS(=O)(=O)Nc1ccc(Cc2noc(-c3ccc4[nH]cc(CCN)c4c3)n2)cc1` [L-694,247], the pIC50 (commonly −log10 of the IC50, conventionally taken in molar units) at 5-HT1E binding site is recorded as 5.66; on 5-HT1A binding site, 8.64; at 5-HT2 binding site, 6.50; on 5-HT1C binding site, 6.42. Moreover, the “affinity (pIC50)” value on 5-HT1B binding site is on record as 9.08; at 5-HT1D binding site, 10.03. For the same molecule, the results for the pEC50 on 5-HT1D receptor [3] and at 5-HT1D receptor [4] were 9.1 and 9.4, respectively.
`CC(C)(C)NCC(O)COc1cccc2[nH]c(C#N)cc12` (centres unmarked) [cyanopindolol]: the “reversal of the response to 5-HT” value on 5-HT1 receptor was “reversed”.
For `NCCc1c[nH]c2ccc(C(N)=O)cc12` [Example 5-CT, 5-carboxamidotryptamine], the “potency (pD2 range)” value at 5-HT1D receptor [1] is 7.2-7.6.
With `CC(C)NCC(O)COc1cccc2[nH]ccc12` (centres unmarked) [pindolol], at 5-HT1 receptor, the “reversal of the response to 5-HT” value was “reversed”.
In the case of `NCCc1c[nH]c2ccc(O)cc12` [Example 5-HT], the “potency (pD2 range)” value on 5-HT1D receptor [1] is recorded as 6.2-7.1. The receptor reserve on 5-HT1F receptors (5-HT-induced inhibition of FSCA) is 90%. In addition, the “receptor occupancy required for half-maximal response” value at 5-HT1F receptors (NIH-3T3 cells) is “about 10%”.
`O=C(c1ccc(F)cc1)C1CCN(CCn2c(=O)[nH]c3ccccc3c2=O)CC1` [ketanserin]: at 5-HT1 receptor, the “reversal of the response to 5-HT” value is listed as “not”.
For the molecule `CC(C)NCC(O)c1cc(O)cc(O)c1` (centres unmarked) [Metaproterenol], at β2-adrenergic receptor, the “onset of action (in words)” value was “within minutes” and the “duration of effect after inhalation” value is “several hours”. Also, on β2-adrenergic receptor (oral), the “duration of effects after oral administration” value is 3 to 4 h.
For `CC(C)[N+]1(C)[C@@H]2CC[C@H]1C[C@@H](OC(=O)C(CO)c1ccccc1)C2` (some centres unmarked) [Ipratropium], in data set [5] (after inhalation), the “persistence of significant effects” value was “more than 4 hours” and the “time over which maximal responses develop” value is 30 to 90 min. Moreover, in data set [5] (some asthmatic patients), the “duration of useful response” value was “up to 6 hours”.
As for `CN(C)CCc1c[nH]c2ccc(C[C@H]3COC(=O)N3)cc12` [Zolmitriptan], the neuropeptide release result in the data set with neuropeptide release is “reduces neuropeptide release”.
